{"source": "patent US20210355166A1", "about": "“[…] METHODS OF USE THEREOF” (priority 2018, published 2021)", "key": {"MOPr [1]": {"target": "T1, MOPr (Mus musculus, UniProt P42866)", "assay": "Ser375 phosphorylation assay in AtT20 cells expressing MOPr", "assay_type": "cell-based", "parameters": "expressed in transfected cells", "conditions": "met-enkephalin defined as 100%", "protocol": "Cells were serum starved for at least 30 min and then incubated in the absence or presence of the indicated ligand for 5-10 min at 37° C. Phosphorylation was terminated by fixing the cells with −30° C. methanol followed by 10 min incubation on ice. Cells were washed three times with phosphate buffered saline (PBS) and then heated in sodium citrate buffer (10 mM, 0.05% Tween 20, pH.6) for 20 min at 95° C. […] Imaging was performed as detailed below.\n(§1) Imaging parameters including laser intensity, photomultiplier tube (PMT) voltage and offset remained constant for each experiment. Mean fluorescence intensity was measured using ImageJ software to calculate mean gray value of an area defined […] a single cell. Each experiment was normalized to the mean of untreated cells as 0% and the mean of cells treated with saturating concentrations of Met-enk (30 μM) as 100%."}, "MOPr [2]": {"target": "T1, MOPr", "assay": "MOPr internalisation (endocytosis assay) in AtT20 cells", "assay_type": "cell-based", "parameters": "expressed in transfected cells", "protocol": "as §1\nMOPr internalisation was assessed immunocytochemically after 30 minutes of agonist treatment (FIGS. 8, 9). […] Endocytosis assay: Receptor internalization was quantified using a ratiometric staining of membrane and internalized receptors. […] Cells were then incubated for an additional 30 min with indicated agonist at 37° C. To unbind the M1 anti-FLAG antibody from the surface receptors, cells were quickly washed three times with ice-cold PBS lacking Mg^2+ and Ca^2+ and supplemented with 0.04% EDTA (pH 7.4)."}, "MOPr [3]": {"target": "T1, MOPr", "assay_type": "cell-based", "parameters": "expressed in transfected cells; host or cells: AtT20 cells, transient co-transfection", "protocol": "Arrestin recruitment: Agonist-induced recruitment of β-arrestin2 to MOPr was examined using a BRET-based approach. AtT20 cells were plated in 10-cm dishes and co-transfected with MOPr C-terminally tagged with Rluc8 (MOPr-RLuc8), β-arrestin2-YFP and GRK2 (1 μg, 4 μg and 2 μg, respectively). 24 h after transfection wells were replated into white opaque 96-well plates (CulturPlate, PerkinElmer) and allowed to adhere overnight. Cells were washed with Hank's Balanced Salt Solution (HBSS) and equilibrated in HBSS for 30 min at 37° C. prior to the experiment. Coelenterazine h was added to a final concentration of 5 μM 10 min before dual fluorescence/luminescence measurement in a LUMIstar Omega plate reader (BMG LabTech). Baseline BRET was measured for 30 sec prior to addition of the indicated ligand. The BRET signal was calculated as the ratio of light emitted at 530 nm by YFP over the light emitted at 430 nm by Renilla luciferase 8 (RLuc8)."}, "mouse MOPr (mMOPr)": {"target": "T2, mouse MOPr (mMOPr) (Mus musculus, UniProt P42866)", "T2 construct": "expressed in transfected cells", "assay_type": "cell-based", "conditions": "operational model fit"}, "[4]": {"target": "human κ-opioid receptor (hKOPr), human recombinant KOPr expressed in CHO cells (human) (UniProt P41145)", "assay": "competition with [3H]U69593 (2 nM), human recombinant KOPr expressed in CHO cells"}, "[5]": {"target": "human δ-opioid receptor (hDOPr), human recombinant DOPr expressed in CHO cells (human) (UniProt P41143)", "assay": "competition with [3H]DADLE (0.5 nM), human recombinant DOPr expressed in CHO cells"}}, "note": "Marks after values point to notes of the source that are not given here."}
{"substance": "met-enkephalin", "values": [{"measurement": "Phosphorylation Emax", "setting": "MOPr [1]", "result": "100* %"}, {"measurement": "Internalisation Emax", "setting": "MOPr [2]", "result": "100* %"}, {"measurement": "MOPr internalisation", "setting": "MOPr [2]", "result": "robust internalisation"}]}
{"substance": "endomorphin-2", "values": [{"measurement": "Phosphorylation Emax", "setting": "MOPr [1]", "result": "98 ± 2", "unit": "%"}, {"measurement": "β-arrestin 2 recruitment Emax", "setting": "MOPr [3]; BRET", "result": "100 ± 3"}, {"measurement": "β-arrestin 2 recruitment log(tau/KA)", "setting": "MOPr [3]; operational model fit", "result": "7.0 ± 0.06"}, {"measurement": "Internalisation Emax", "setting": "MOPr [2]", "result": "94 ± 3", "unit": "%"}, {"measurement": "Internalisation log(tau/KA)", "setting": "MOPr [2]", "result": "6.2 ± 0.05"}, {"measurement": "MOPr internalisation", "setting": "MOPr [2]", "result": "robust internalisation"}, {"measurement": "GIRK (80% knockdown) log(tau/KA)", "setting": "mouse MOPr (mMOPr)", "result": "7.5 ± 0.04"}]}
{"substance": "bilorphin (H-[Dmt]-vVf-NH2; 2,6-dimethyl-L-tyrosine-D-Val-L-Val-D-Phe-NH2) (peptide)", "values": [{"measurement": "Ki", "setting": "[4]", "result": 770, "unit": "nM"}, {"measurement": "Ki", "setting": "[5]", "result": 190, "unit": "nM"}]}
